Source: ChEMBL document CHEMBL1201862, “PubChem BioAssay data set” (2004)
Active and inactive are the calls of the source.

What was measured:
[1] = molecular target: T1, Tyrosine-protein phosphatase non-receptor type 7 (Homo sapiens, UniProt P35236); assay: HePTP tyrosine phosphatase activity blockers – biochemical, absorbance, leukemia target, primary screen (AID 521); assay type: functional
T1 sequence (P35236 whole entry): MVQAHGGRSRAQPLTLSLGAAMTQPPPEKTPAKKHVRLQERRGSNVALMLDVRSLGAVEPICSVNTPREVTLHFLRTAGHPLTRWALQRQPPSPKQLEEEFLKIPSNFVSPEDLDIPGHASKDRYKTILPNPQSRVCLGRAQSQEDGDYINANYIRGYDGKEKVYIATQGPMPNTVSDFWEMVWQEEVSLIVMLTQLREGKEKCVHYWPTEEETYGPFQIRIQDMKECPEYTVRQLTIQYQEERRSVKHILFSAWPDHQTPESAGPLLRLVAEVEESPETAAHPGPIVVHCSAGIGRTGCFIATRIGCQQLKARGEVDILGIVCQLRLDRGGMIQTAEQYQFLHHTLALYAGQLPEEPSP

[2] = HIV-1 Vif–A3G interaction blockers – biochemical, TR-FRET, GST-Vif 1-94, biotin-A3G peptide, dose response retest, primary screen (AID 1117319); assay type: functional;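 note: TR-FRET signal of purified GST-Vif binding a biotinylated A3G peptide; inhibitors lower the FRET signal by blocking Vif and A3G binding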
Paired box protein Pax-8 = Paired box protein Pax-8 (Homo sapiens, UniProt Q06710); assay: PAX8 transcriptional activity inhibition in RMG-I – RMG-I cells, luciferase, cherry-pick, dose response (AID 687027); assay type: functional, cell-based;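 note: luciferase reporter driven by Pax8 target thyroperoxidase promoter measured by SteadyGlo luminescence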
Paired box protein Pax-8, sequence (Q06710 whole entry): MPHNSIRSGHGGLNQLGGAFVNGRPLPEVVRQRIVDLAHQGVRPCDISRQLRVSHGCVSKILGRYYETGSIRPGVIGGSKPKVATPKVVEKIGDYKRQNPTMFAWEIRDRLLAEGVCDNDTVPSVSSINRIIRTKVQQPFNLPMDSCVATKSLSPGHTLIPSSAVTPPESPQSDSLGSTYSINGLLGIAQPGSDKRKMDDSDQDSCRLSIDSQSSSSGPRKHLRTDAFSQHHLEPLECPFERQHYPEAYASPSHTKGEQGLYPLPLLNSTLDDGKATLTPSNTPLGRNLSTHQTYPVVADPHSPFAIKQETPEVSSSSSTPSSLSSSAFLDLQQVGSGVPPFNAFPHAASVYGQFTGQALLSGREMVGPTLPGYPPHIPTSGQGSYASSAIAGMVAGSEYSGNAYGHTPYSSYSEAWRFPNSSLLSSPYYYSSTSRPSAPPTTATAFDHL

[3] = OVCAR-3 cell viability loss – plate reader, dry powder samples, PAX8 inhibitor project, dose response (AID 743044); assay type: functional, cell-based
[4] = OVCAR8 cell viability loss – plate reader, dry powder samples, PAX8 project, dose response (AID 743197); assay type: functional, cell-based; conditions: OVCAR-8
[5] = Luminescence Cell-Based Dose Response to Identify Activators of 5'UTR Stem-Loop Driven Prion Protein mRNA Translation in H4-C Neuroglioblastoma Cells. [Related pubchem assays: 1829 (Project Summary), 1814 (Primary HTS)]; assay type: functional
[6] = Luminescence Cell-Based Dose Response HTS to Identify Activators of Luciferase Translation or Activity in H4 […] Cells. [Related pubchem assays: 1829 (Project Summary), 1814 (Primary HTS)]; assay type: functional
H4 = assay: Luminescence Cell-Based Dose Response HTS to Identify Activators of 5'UTR Stem-Loop Driven Prion Protein mRNA Translation in H4 Neuroglioblastoma Cells. [Related pubchem assays: 1829 (Project Summary), 1814 (Primary HTS)]; assay type: functional; conditions: Homo sapiens
[7] = Luminescence Cell-Based Dose Response to Identify Activators of Luciferase Translation or Activity in H4-C Neuroglioblastoma Cells. [Related pubchem assays: 1829 (Project Summary), 1814 (Primary HTS)]; assay type: functional
[8] = Luminescence Cell-Based Dose Confirmation to Identify Activators of 5'UTR Stem-Loop Driven Alpha-Synuclein mRNA Translation in H4 Neuroglioblastoma Cells. [Related pubchem assays: 1829 (Project Summary), 1814 (Primary HTS)]; assay type: functional
[9] = growth inhibition of yeast DHODH-expressing 3D7 parasites – SYBR Green, dry powder samples, dose response (AID 1159570); assay type: functional, cell-based;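 note: parasite growth measured after 72 hours of compound exposure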
[10] = Dd2 parasite growth inhibition in erythrocytes – SYBR Green, dry powder samples, set 9, dose response (AID 1159568); assay type: functional, cell-based
[11] = P. falciparum Dd2 growth inhibitors, dose response, SYBR Green, cherry-picked samples (AID 1159567); assay type: functional, cell-based
[12] = Dd2 malaria parasite growth inhibition potency – SYBR Green, dry powder samples, dose response (AID 1159566); assay type: functional, cell-based;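 note: potency for growth inhibition with lower SYBR green DNA signal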
[13] = growth inhibition of PfATP4-mutant resistant parasites – NITD609-resistant line, SYBR Green, dry powder, dose response (AID 1159571); assay type: functional, cell-based;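 note: parasites synchronized at ring stage by sorbitol before testing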
[14] = rise of 2N DNA cells, HeLa – IC50, dose response (AID 1117349); assay type: functional, cell-based
[15] = RKO cell viability reduction, dose response, CellTiter-Glo luminescence (AID 1117322); assay type: functional
[16] = cytotoxicity toward HCT116 cells – cell-based, CellTiter-Glo luminescence, IC50, dose response (AID 1117332); assay type: functional; conditions: HCT-116
[17] = SNU-C1 cell viability reduction, dose response, CellTiter-Glo luminescence (AID 1117323); assay type: functional, cell-based
[18] = cytotoxicity toward Colo320 cells – cell-based, CellTiter-Glo luminescence, IC50, dose response (AID 1117334); assay type: functional; conditions: COLO 320
[19] = rise of 4N DNA cells, HeLa – IC50, dose response (AID 1117351); assay type: functional, cell-based
[20] = cytotoxicity toward HT-29 cells – cell-based, CellTiter-Glo luminescence, IC50, dose response (AID 1117330); assay type: functional
[21] = Reduced DLD-1 viability, concentration-response, CellTiter-Glo luminescence (AID 1117352); assay type: functional
[22] = HCT116 cell viability decrease, GSK3B pretreatment – CellTiter-Glo, IC50, dose response (AID 1117339); assay type: functional; conditions: HCT-116
[23] = CellTiter-Glo luminescence survival assay, SW480 colon tumor line, concentration-response curve, half-maximal inhibitory concentration (AID 1117338); assay type: functional

Question: Which IC50 [1] does the source give for COc1ccccc1N1CCN(S(=O)(=O)c2c[nH]cn2)CC1 here?
Answer: > 100 µM (not active)

Question: With O=S(=O)(Nc1ccc(N2CCOCC2)cc1)c1ccccc1 as the molecule, how does the IC50 [2] read?
Answer: > 100 µM (active)

Question: For C[C@@H]1CN([C@H](C)CO)C(=O)c2cc(NC(=O)Nc3ccc(F)cc3)ccc2O[C@@H](C)CCCCO[C@H]1CN(C)C(=O)Nc1ccc(C(F)(F)F)cc1, which AC50 (Paired box protein Pax-8) is on record?
Answer: 5.23 µM (active)

Question: And the AC50 [3]?
Answer: 35 µM (active)

Question: What about the AC50 [4] of the same molecule?
Answer: 39.3 µM (active)

Question: For CCOC(=O)c1s/c(=N\C(=O)/C=C/c2cccs2)n(C)c1C, which EC50 [5] is on record?
Answer: 2.23 µM (active)

Question: And the EC50 [6]?
Answer: < 100 nM (inconclusive)

Question: And the EC50 (H4)?
Answer: 1.08 µM (active)

Question: And the EC50 [7]?
Answer: > 12 µM (not active)

Question: And the EC50 [8]?
Answer: 315 nM (active)

Question: Which AC50 [9] does the source give for COc1ccc(C#Cc2ccc3c(c2)O[C@@H](CN(C)C(=O)Nc2cccc(OC)c2)[C@@H](C)CN([C@H](C)CO)S3(=O)=O)cc1 here?
Answer: 473 nM (active)

Question: And the AC50 [10]?
Answer: 0.466 µM (active)

Question: What about the AC50 [11] of the same molecule?
Answer: 1.07 µM (active)

Question: What about the AC50 [12] of the same molecule?
Answer: 490 nM (active)

Question: And the AC50 [13]?
Answer: 494 nM (active)

Question: For O=C(C[C@@H]1C[C@H]2c3cc(NC(=O)c4ccc5c(c4)OCO5)ccc3O[C@H]2[C@H](CO)O1)NCc1ccc(Oc2ccccc2)cc1, which AC50 [10] is on record?
Answer: 25.6 µM (active)

Question: Which IC50 [14] does the source give for Nc1nc(Cl)nc2c1ncn2[C@@H]1O[C@H](CO)[C@@H](O)[C@@H]1F [CLOFARABINE] here?
Answer: > 10 µM (inactive)

Question: And the IC50 [15]?
Answer: 0.001 µM (active)

Question: What about the IC50 [16] of the same molecule?
Answer: 1 nM (active)

Question: And the IC50 [17]?
Answer: > 20 µM (inactive)

Question: What about the IC50 [18] of the same molecule?
Answer: > 20 µM (inactive)

Question: And the IC50 [19]?
Answer: > 10 µM (inactive)

Question: What about the IC50 [20] of the same molecule?
Answer: > 20 µM (inactive)

Question: And the IC50 [21]?
Answer: 0.164 µM (active)

Question: And the IC50 [22]?
Answer: 1 nM (active)

Question: With O=c1[nH]cc(F)c(=O)[nH]1 [FLUOROURACIL] as the molecule, how does the IC50 [14] read?
Answer: > 10 µM (inactive)

Question: What about the IC50 [23] of the same molecule?
Answer: > 20 µM (inactive)

Question: What about the IC50 [15] of the same molecule?
Answer: > 20 µM (inactive)

Question: What about the IC50 [17] of the same molecule?
Answer: > 20 µM (inactive)

Question: What about the IC50 [18] of the same molecule?
Answer: > 20 µM (inactive)

Question: What about the IC50 [19] of the same molecule?
Answer: > 10 µM (inactive)

Question: And the IC50 [20]?
Answer: > 20 µM (inactive)

Question: And the IC50 [21]?
Answer: > 20 µM (inactive)
